{
  "source": "patent US11319299B2",
  "about": "“Substituted carboxamides as inhibitors of WDR5 protein-protein binding” (PROPELLON THERAPEUTICS INC., priority 2016, dated 2022)",
  "data": [
    {"target": "WDR5 (Homo sapiens (Human), UniProt P61964)", "experiment": "Surface Plasmon Resonance (SPR) assay, KD and residence time", "type": "binding", "conditions": "surface plasmon resonance (SPR); read-out: WDR5 binding affinity (KD)", "units": {"Kd": "nM"}, "values": [
      {"smiles": "C[C@@H]1CN(c2cc(F)c(-c3csc(C(=O)N4CCN(C)CC4)n3)cc2NC(=O)c2c[nH]c(=O)cc2C(F)(F)F)C[C@H](C)N1C", "note": "[Example 536, N-[4-fluoro-5-[2-(4-methylpiperazine-1-carbonyl)-1,3-thiazol-4-yl]-2-[(3R,5S)-3,4,5-trimethylpiperazin-1-yl]phenyl]-6-oxo-4-(trifluoromethyl)-1H-pyridine-3-carboxamide]", "Kd": 1.03},
      {"smiles": "C[C@@H]1CN(c2cc(F)c(-c3ccnc(NC4CCCCC4)n3)cc2NC(=O)c2c[nH]c(=O)cc2C(F)(F)F)C[C@H](C)N1C", "note": "[Example 537, N-[5-[2-(cyclohexylamino)pyrimidin-4-yl]-4-fluoro-2-[(3R,5S)-3,4,5-trimethylpiperazin-1-yl]phenyl]-6-oxo-4-(trifluoromethyl)-1H-pyridine-3-carboxamide]", "Kd": 0.944},
      {"smiles": "CNc1nccc(-c2cc(NC(=O)c3c[nH]c(=O)cc3C(F)(F)F)c(N3C[C@@H](C)N(C)[C@@H](C)C3)cc2F)n1", "note": "[Example 538, N-[4-fluoro-5-[2-(methylamino)pyrimidin-4-yl]-2-[(3R,5S)-3,4,5-trimethylpiperazin-1-yl]phenyl]-6-oxo-4-(trifluoromethyl)-1H-pyridine-3-carboxamide]", "Kd": 3.02},
      {"smiles": "C[C@@H]1CN(c2cc(F)c(-c3ccnc(C#N)n3)cc2NC(=O)c2c[nH]c(=O)cc2C(F)(F)F)C[C@H](C)N1C", "note": "[Example 539, N-[5-(2-cyanopyrimidin-4-yl)-4-fluoro-2-[(3R,5S)-3,4,5-trimethylpiperazin-1-yl]phenyl]-6-oxo-4-(trifluoromethyl)-1H-pyridine-3-carboxamide]", "Kd": 2.56},
      {"smiles": "CNC1CCN(c2cc(F)c(-c3cnc(N4CCOCC4)nc3)cc2NC(=O)c2c[nH]c(=O)cc2C(F)(F)F)CC1", "note": "[Example 541, N-[4-fluoro-2-[4-(methylamino)piperidin-1-yl]-5-(2-morpholin-4-ylpyrimidin-5-yl)phenyl]-6-oxo-4-(trifluoromethyl)-1H-pyridine-3-carboxamide]", "Kd": 7.44},
      {"smiles": "C[C@@H]1CN(c2ccc(-c3cc(NC(=O)c4cn(C)c(=O)cc4C(F)F)c(N4C[C@@H](C)N(C)[C@@H](C)C4)cc3F)cn2)CCO1", "note": "[Example 542, 4-(difluoromethyl)-N-[4-fluoro-5-[6-[(2R)-2-methylmorpholin-4-yl]pyridin-3-yl]-2-[(3R,5S)-3,4,5-trimethylpiperazin-1-yl]phenyl]-1-methyl-6-oxopyridine-3-carboxamide]", "Kd": 5.53},
      {"smiles": "C[C@@H]1CN(c2ncc(-c3cc(NC(=O)c4cn(C)c(=O)cc4C(F)(F)F)c(N4CCN(C)[C@@H](C)C4)cc3F)cn2)CCO1", "note": "[Example 544, N-[4-fluoro-2-[(3S)-3,4-dimethylpiperazin-1-yl]-5-[2-[(2R)-2-methylmorpholin-4-yl]pyrimidin-5-yl]phenyl]-1-methyl-6-oxo-4-(trifluoromethyl)pyridine-3-carboxamide]", "Kd": 1.8},
      {"smiles": "C[C@@H]1CN(c2ncc(-c3cc(NC(=O)c4ccc(F)cc4C(F)(F)F)c(N4C[C@@H](C)N(C)[C@@H](C)C4)cc3F)cn2)CCO1", "note": "[Example 545, 4-fluoro-N-[4-fluoro-5-[2-[(2R)-2-methylmorpholin-4-yl]pyrimidin-5-yl]-2-[(3R,5S)-3,4,5-trimethylpiperazin-1-yl]phenyl]-2-(trifluoromethyl)benzamide]", "Kd": 3.4},
      {"smiles": "C[C@@H]1CN(c2cc(F)c(-c3cnc(N4CCNCC4)nc3)cc2NC(=O)c2ccc(F)cc2C(F)(F)F)C[C@H](C)N1C", "note": "[Example 546, 4-fluoro-N-[4-fluoro-5-(2-piperazin-1-ylpyrimidin-5-yl)-2-[(3R,5S)-3,4,5-trimethylpiperazin-1-yl]phenyl]-2-(trifluoromethyl)benzamide]", "Kd": 2.1},
      {"smiles": "C[C@@H]1CN(c2cc(F)c(-c3ccc(N4CCOCC4)nc3)cc2NC(=O)c2ccc(F)cc2C(F)(F)F)C[C@H](C)N1C", "note": "[Example 547, 4-fluoro-N-[4-fluoro-5-(6-morpholin-4-ylpyridin-3-yl)-2-[(3R,5S)-3,4,5-trimethylpiperazin-1-yl]phenyl]-2-(trifluoromethyl)benzamide]", "Kd": 1.5},
      {"smiles": "C[C@@H]1CN(c2cc(F)c(-c3ccc(N4CCNCC4)cc3)cc2NC(=O)c2c[nH]c(=O)cc2C(F)(F)F)C[C@H](C)N1C", "note": "[Example 549, N-[4-fluoro-5-(4-piperazin-1-ylphenyl)-2-[(3R,5S)-3,4,5-trimethylpiperazin-1-yl]phenyl]-6-oxo-4-(trifluoromethyl)-1H-pyridine-3-carboxamide]", "Kd": 0.8},
      {"smiles": "C[C@@H]1CN(c2cc(F)c(-c3ccc(F)c(C(N)=O)c3)cc2NC(=O)c2c[nH]c(=O)cc2C(F)(F)F)C[C@H](C)N1C", "note": "[Example 550, N-[5-(3-carbamoyl-4-fluorophenyl)-4-fluoro-2-[(3R,5S)-3,4,5-trimethylpiperazin-1-yl]phenyl]-6-oxo-4-(trifluoromethyl)-1H-pyridine-3-carboxamide]", "Kd": 2.5},
      {"smiles": "C[C@@H]1CN(c2cc(F)c(-c3ccc(C(N)=O)c(F)c3)cc2NC(=O)c2c[nH]c(=O)cc2C(F)(F)F)C[C@H](C)N1C", "note": "[Example 551, N-[5-(4-carbamoyl-3-fluorophenyl)-4-fluoro-2-[(3R,5S)-3,4,5-trimethylpiperazin-1-yl]phenyl]-6-oxo-4-(trifluoromethyl)-1H-pyridine-3-carboxamide]", "Kd": 0.6},
      {"smiles": "C[C@@H]1CN(c2cc(F)c(-c3ccc(F)c(C(N)=O)c3)cc2NC(=O)c2c[nH]c(=O)cc2C(F)F)C[C@H](C)N1C", "note": "[Example 552, N-[5-(3-carbamoyl-4-fluorophenyl)-4-fluoro-2-[(3R,5S)-3,4,5-trimethylpiperazin-1-yl]phenyl]-4-(difluoromethyl)-6-oxo-1H-pyridine-3-carboxamide]", "Kd": 3.1},
      {"smiles": "C[C@@H]1CN(c2cc(F)c(-c3ccc(C(N)=O)c(F)c3)cc2NC(=O)c2c[nH]c(=O)cc2C(F)F)C[C@H](C)N1C", "note": "[Example 553, N-[5-(4-carbamoyl-3-fluorophenyl)-4-fluoro-2-[(3R,5S)-3,4,5-trimethylpiperazin-1-yl]phenyl]-4-(difluoromethyl)-6-oxo-1H-pyridine-3-carboxamide]", "Kd": 1},
      {"smiles": "C[C@@H]1CN(c2cc(F)c(-c3ccc(F)c(C(N)=O)c3)cc2NC(=O)c2ccc(F)cc2C(F)(F)F)C[C@H](C)N1C", "note": "[Example 556, 2-fluoro-5-[2-fluoro-5-[[4-fluoro-2-(trifluoromethyl)benzoyl]amino]-4-[(3R,5S)-3,4,5-trimethylpiperazin-1-yl]phenyl]benzamide]", "Kd": 10.4},
      {"smiles": "C[C@@H]1CN(c2cc(F)c(-c3cnc(N4CCOC(C)(C)C4)nc3)cc2NC(=O)c2ccc(F)cc2C(F)(F)F)C[C@H](C)N1C", "note": "[Example 559, N-[5-[2-(2,2-dimethylmorpholin-4-yl)pyrimidin-5-yl]-4-fluoro-2-[(3R,5S)-3,4,5-trimethylpiperazin-1-yl]phenyl]-4-fluoro-2-(trifluoromethyl)benzamide]", "Kd": 2.92},
      {"smiles": "O=C(Nc1cc(-c2cnc(N3CCOCC3)nc2)c(F)cc1N1CCN(C2CC2)CC1)c1c[nH]c(=O)cc1C(F)(F)F", "note": "[Example 561, N-[2-(4-cyclopropylpiperazin-1-yl)-4-fluoro-5-(2-morpholin-4-ylpyrimidin-5-yl)phenyl]-6-oxo-4-(trifluoromethyl)-1H-pyridine-3-carboxamide]", "Kd": 23.5}
    ]}
  ]
}
